# Data published in article PMC7123187 (HCV: The Journey from Discovery to a Cure, 2018).
# Like-named read-outs stand apart in the source and are kept apart here.
# Experiments:
# [1] = target: human phosphodiesterase 4; test: Phosphodiesterase 4 functional assay; format: biochemical; settings: read-out: IC50 phosphodiesterase 4 functional assay
# [2] = target: NS5B P495L (Hepatitis C virus genotype 1b, UniProt Q9WMX2, P2914L); test: biochemical
# [3] = tested on: BVDV, polio, rhino, corona, coxsackie, influenza, and human immunodeficiency viruses (HIV); test: organism not typed; format: cell-based; settings: read-out: EC50 against panel of viruses
# [4] = in vitro; format: in vitro ADME; settings: human, microsomes
# [5] = tested on: chronic HCV genotype 1 infection; settings: patients, cited from earlier work
# [6] = rat; for liver levels: satellite study
# [7] = target: CYP 3A4 (Homo sapiens, UniProt P08684); test: in vitro
# [8] = in vitro; settings: monkey, microsomes
# [9] = target: human pregnane X receptor (hPXR) (Homo sapiens, UniProt O75469); settings: at 5.56 μM
# [10] = tested on: HCV genotype 1b (Con1) replicon in Huh-7; test: microbe, parasite or virus in culture; format: cell-based; settings: Hepatitis C virus, GETYPE1B, Huh-7, read-out: potency in the replicon assays
# [11] = target: recombinant wild-type NS5B (genotype 1b, Con1) (Hepatitis C virus genotype 1b, UniProt Q9WMX2); test: biochemical
# [12] = in vitro
# [13] = physchem; settings: pKa values, zwitterionic form
# [14] = in vivo; settings: rat
# Sequence of human pregnane X receptor (hPXR) (O75469 whole entry): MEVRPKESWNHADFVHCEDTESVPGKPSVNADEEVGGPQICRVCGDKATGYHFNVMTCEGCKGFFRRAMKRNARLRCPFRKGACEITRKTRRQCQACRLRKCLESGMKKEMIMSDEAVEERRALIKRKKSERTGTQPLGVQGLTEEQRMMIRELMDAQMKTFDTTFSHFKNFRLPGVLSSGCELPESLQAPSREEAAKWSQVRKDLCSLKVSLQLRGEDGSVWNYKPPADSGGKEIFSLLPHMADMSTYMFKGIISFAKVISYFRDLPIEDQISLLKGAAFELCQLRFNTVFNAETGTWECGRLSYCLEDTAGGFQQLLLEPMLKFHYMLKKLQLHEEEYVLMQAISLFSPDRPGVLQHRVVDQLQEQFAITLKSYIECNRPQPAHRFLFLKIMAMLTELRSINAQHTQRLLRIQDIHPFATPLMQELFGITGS
# Sequence of CYP 3A4 (P08684 whole entry): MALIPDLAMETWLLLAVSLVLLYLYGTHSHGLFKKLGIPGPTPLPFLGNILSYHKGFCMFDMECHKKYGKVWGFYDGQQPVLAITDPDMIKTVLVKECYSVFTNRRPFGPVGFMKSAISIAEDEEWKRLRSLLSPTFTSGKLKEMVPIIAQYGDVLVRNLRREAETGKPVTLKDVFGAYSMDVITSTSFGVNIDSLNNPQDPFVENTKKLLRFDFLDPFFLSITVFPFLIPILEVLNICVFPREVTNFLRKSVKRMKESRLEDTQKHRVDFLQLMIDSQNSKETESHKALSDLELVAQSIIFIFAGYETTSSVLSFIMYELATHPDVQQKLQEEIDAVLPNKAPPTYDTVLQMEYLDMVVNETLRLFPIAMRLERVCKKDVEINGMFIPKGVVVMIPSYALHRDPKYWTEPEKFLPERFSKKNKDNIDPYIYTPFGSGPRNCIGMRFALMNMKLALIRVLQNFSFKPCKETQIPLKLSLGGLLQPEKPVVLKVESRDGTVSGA
compound,measurement,setting,value
"COc1ccc2c(c1)[C@@H]1C[C@]1(C(=O)N1[C@@H]3CC[C@H]1CN(C)C3)Cn1c-2c(C2CCCCC2)c2ccc(C(=O)NS(=O)(=O)N(C)C)cc21 [Compound 66, beclabuvir]",IC50,[1],> 10 µM
same,IC50,[2],0.19 µM
same,EC50,[3],> 14 µM
same,half-life,[4],53 min
same,decline in viral load,"[5]; 300 mg single dose, 24 h post-dosing",approximately 2.5 log10 IU/mL
same,tolerability,[5]; single doses 100-900 mg,well tolerated
same,liver levels,[6]; 4 h following oral dosing,"24,400 nM"
same,liver levels,[6]; 24 h following oral dosing,"1,700 nM"
same,Cl,"[6]; in vivo, iv, 5 mg/kg",3.5 (±0.8) mL/min/kg
same,IC50,[7],> 40 µM
same,half-life,[8],23 min
same,hPXR transactivation Y max,[9],8.1 ± 1.9
same,EC50,[10],< 0.01 µM
same,bound to human serum,,98%
same,IC50,[11],0.02 µM
same,CC50,[12],14 to 48 µM
same,pKa,[13],4.6
same,AUC(0-inf),"[14]; iv, 5 mg/kg",30 µM·h
same,Cmax,"[14]; iv, 5 mg/kg",12.1 µM
same,half-life,"[14]; iv, 5 mg/kg",672 min
same,AUC(0-inf),"[14]; po, 10 mg/kg",39.3 µM·h
same,Cmax,"[14]; po, 10 mg/kg",3.26 µM
